Legend:
Type in all cases: in vivo, human
[1] = test system: subjects with uncontrolled hypertension; assay: 24-hour ambulatory blood pressure monitoring (ABPM); settings: for Proportion of subjects with nighttime dip 10-20% in 24-hour systolic ABP / Proportion of subjects with nighttime dip <10% in 24-hour systolic ABP / Proportion of subjects with nighttime dip >20% in 24-hour systolic ABP: Part 1, FAS
Method: Ambulatory blood pressure monitoring was accomplished with an ambulatory blood pressure monitoring device that consists of a blood pressure cuff worn on a subject's arm attached to a small recording device that is typically attached to the subject's belt or waistband. The ABPM device is worn for 24 hours. Throughout that period, the device records the subject's blood pressure at regular intervals, during the subject's routine daily activities and while they are sleeping. The ABPM thus provides a complete record of the subject's blood pressure over a 24-hour period. 24-hour ABPM was measured in the clinic at baseline and Study Week 7. If, for any reason, the ABPM procedure was deemed a failure at the end of Study Week 7, it may have been repeated at Study Week 8 and therefore no imputation was employed regardless of use of rescue medications. Additionally, ABPM was also collected at the end of Study Week 4 in Part 2. If a repeat test was performed, it supersedes the original test results for that visit. Specific derived variables based on ABPM measurements include mean 24-hour, mean Daytime, and mean Nighttime of SBP, DBP, and heart rate. Change from baseline to Week 7 in 24-hour mean SBP (and DBP) based on ABPM will be analyzed using an ANCOVA with a term for treatment group and a baseline mean 24-hour value as a covariate. The nighttime dip is defined as 100% x(mean daytime SBP−mean nighttime SBP)/mean daytime SBP It is expressed as a percentage and is summarized by treatment group and visit using descriptive statistics. In addition, the number and percentage of subjects with nighttime dip in each of the dipper categories (Bloomfield & Park, 2015) is presented by treatment group and visit. The categories are: • (a) <10% • (b) 10-20% inclusive • (c) >20%

[2] = test system: serum aldosterone; assay: Pharmacodynamics: serum aldosterone; settings: for Aldosterone, mean observed: BL; for Aldosterone levels relative to baseline: Part 1 lorundrostat-treated (range across doses)
Excerpt: PK/PD Analysis Set includes all subjects in the SAF who have sufficient data available for the analysis of pharmacokinetic and pharmacodynamic measurements. In the analyses based on PKPD, subjects will be analyzed according to the actual treatment received.

[3] = Estimated glomerular filtration rate (eGFR, CKD-EPI equation); settings: for Estimated Glomerular Filtration Rate, mean observed / Estimated Glomerular Filtration Rate, mean change from baseline: Part 1

CC(=O)N[C@H]1CC[C@H](NC(=O)CN2CCN(c3nncc(-c4ccc(C)cc4)n3)CC2)CC1 [Compound A HBr]
Proportion of subjects with nighttime dip 10-20% in 24-hour systolic ABP ([1]; 12.5 mg BID, EoT): (31.3) % | Proportion of subjects with nighttime dip <10% in 24-hour systolic ABP ([1]; 12.5 mg BID, EoT): (68.8) % | LSM Δ with Placebo, change from baseline in Nighttime Mean DBP (ABPM, ANCOVA) ([1]; 12.5 mg QD, End of Treatment, Part 1, FAS post-hoc): −1.53 mmHg | Proportion of subjects with nighttime dip 10-20% in 24-hour systolic ABP ([1]; 12.5 mg QD, EoT): (35.7) % | Proportion of subjects with nighttime dip <10% in 24-hour systolic ABP ([1]; 12.5 mg QD, EoT): (64.3) % | Proportion of subjects with nighttime dip 10-20% in 24-hour systolic ABP ([1]; 25 mg BID, EoT): (16.7) % | Proportion of subjects with nighttime dip <10% in 24-hour systolic ABP ([1]; 25 mg BID, EoT): (79.2) % | Proportion of subjects with nighttime dip >20% in 24-hour systolic ABP ([1]; 25 mg BID, EoT): (4.2) % | Proportion of subjects with nighttime dip 10-20% in 24-hour systolic ABP ([1]; 50 mg QD, EoT): (21.4) % | Proportion of subjects with nighttime dip <10% in 24-hour systolic ABP ([1]; 50 mg QD, EoT): (78.6) % | Proportion of subjects with nighttime dip 10-20% in 24-hour systolic ABP ([1]; 100 mg QD, EoT): (45.8) % | Proportion of subjects with nighttime dip <10% in 24-hour systolic ABP ([1]; 100 mg QD, EoT): (45.8) % | Proportion of subjects with nighttime dip >20% in 24-hour systolic ABP ([1]; 100 mg QD, EoT): (8.3) % | Subjects with nighttime dip 10-20% in 24-hour systolic ABP ([1]; 100 mg QD, EoT, Part 2, FAS): 9 n | Subjects with nighttime dip <10% in 24-hour systolic ABP ([1]; 100 mg QD, EoT, Part 2, FAS): 18 n | Subjects with nighttime dip >20% in 24-hour systolic ABP ([1]; 100 mg QD, EoT, Part 2, FAS): 0 n | Subjects with nighttime dip 10-20% in 24-hour systolic ABP ([1]; 100 mg QD, Week 4, Part 2, FAS): 6 n | Subjects with nighttime dip <10% in 24-hour systolic ABP ([1]; 100 mg QD, Week 4, Part 2, FAS): 18 n | Subjects with nighttime dip >20% in 24-hour systolic ABP ([1]; 100 mg QD, Week 4, Part 2, FAS): 1 n | Aldosterone, mean observed ([2]; Part 1, 12.5 mg BID): 6.636 ng/dL | Aldosterone, mean observed ([2]; Part 1, 12.5 mg QD): 7.065 ng/dL | Aldosterone, mean observed ([2]; Part 1, 25 mg BID): 6.558 ng/dL | Aldosterone, mean observed ([2]; Part 1, 50 mg QD): 6.205 ng/dL | Aldosterone, mean observed ([2]; Part 1, 100 mg QD): 6.533 ng/dL | Aldosterone levels relative to baseline ([2]; Week 4): −40.1% to 7.4% | Aldosterone levels relative to baseline ([2]; Week 12): −26.6% to 15.9% | Aldosterone, mean observed ([2]; Part 2, 100 mg QD): 6.435 ng/dL | Serum aldosterone levels ([2]; pharmacodynamic response across doses): dose-dependent reduction | eGFR mean maximum decline relative to baseline ([3]; 100 mg QD, Part 1, Week 2): 10.91 mL/min/1.73 m^2 | Estimated Glomerular Filtration Rate, mean observed ([3]; 12.5 mg BID, BL): 81.70 mL/min/1.73 m^2 | Estimated Glomerular Filtration Rate, mean change from baseline ([3]; 12.5 mg BID, Week 1): −2.25 mL/min/1.73 m^2 | Estimated Glomerular Filtration Rate, mean observed ([3]; 12.5 mg BID, Week 1): 79.45 mL/min/1.73 m^2 | Estimated Glomerular Filtration Rate, mean change from baseline ([3]; 12.5 mg BID, Week 2): −3.69 mL/min/1.73 m^2 | Estimated Glomerular Filtration Rate, mean observed ([3]; 12.5 mg BID, Week 2): 78.86 mL/min/1.73 m^2 | Estimated Glomerular Filtration Rate, mean change from baseline ([3]; 12.5 mg BID, Week 3): −5.17 mL/min/1.73 m^2 | Estimated Glomerular Filtration Rate, mean observed ([3]; 12.5 mg BID, Week 3): 77.38 mL/min/1.73 m^2 | Estimated Glomerular Filtration Rate, mean change from baseline ([3]; 12.5 mg BID, Week 4): −6.58 mL/min/1.73 m^2 | Estimated Glomerular Filtration Rate, mean observed ([3]; 12.5 mg BID, Week 4): 76.30 mL/min/1.73 m^2 | Estimated Glomerular Filtration Rate, mean change from baseline ([3]; 12.5 mg BID, Week 5): −7.58 mL/min/1.73 m^2 | Estimated Glomerular Filtration Rate, mean observed ([3]; 12.5 mg BID, Week 5): 73.84 mL/min/1.73 m^2 | Estimated Glomerular Filtration Rate, mean change from baseline ([3]; 12.5 mg BID, Week 6): −6.45 mL/min/1.73 m^2 | Estimated Glomerular Filtration Rate, mean observed ([3]; 12.5 mg BID, Week 6): 74.70 mL/min/1.73 m^2 | Estimated Glomerular Filtration Rate, mean change from baseline ([3]; 12.5 mg BID, Week 7): −7.03 mL/min/1.73 m^2 | Estimated Glomerular Filtration Rate, mean observed ([3]; 12.5 mg BID, Week 7): 75.85 mL/min/1.73 m^2 | Estimated Glomerular Filtration Rate, mean change from baseline ([3]; 12.5 mg BID, Week 8): −6.66 mL/min/1.73 m^2 | Estimated Glomerular Filtration Rate, mean observed ([3]; 12.5 mg BID, Week 8): 76.32 mL/min/1.73 m^2 | Estimated Glomerular Filtration Rate, mean observed ([3]; 12.5 mg QD, BL): 77.87 mL/min/1.73 m^2 | Estimated Glomerular Filtration Rate, mean change from baseline ([3]; 12.5 mg QD, Week 1): −4.30 mL/min/1.73 m^2 | Estimated Glomerular Filtration Rate, mean observed ([3]; 12.5 mg QD, Week 1): 73.57 mL/min/1.73 m^2 | Estimated Glomerular Filtration Rate, mean change from baseline ([3]; 12.5 mg QD, Week 2): −4.87 mL/min/1.73 m^2 | Estimated Glomerular Filtration Rate, mean observed ([3]; 12.5 mg QD, Week 2): 73.00 mL/min/1.73 m^2 | Estimated Glomerular Filtration Rate, mean change from baseline ([3]; 12.5 mg QD, Week 3): −2.05 mL/min/1.73 m^2 | Estimated Glomerular Filtration Rate, mean observed ([3]; 12.5 mg QD, Week 3): 77.21 mL/min/1.73 m^2 | Estimated Glomerular Filtration Rate, mean change from baseline ([3]; 12.5 mg QD, Week 4): −5.45 mL/min/1.73 m^2 | Estimated Glomerular Filtration Rate, mean observed ([3]; 12.5 mg QD, Week 4): 73.40 mL/min/1.73 m^2 | Estimated Glomerular Filtration Rate, mean change from baseline ([3]; 12.5 mg QD, Week 5): −3.60 mL/min/1.73 m^2 | Estimated Glomerular Filtration Rate, mean observed ([3]; 12.5 mg QD, Week 5): 75.25 mL/min/1.73 m^2 | Estimated Glomerular Filtration Rate, mean change from baseline ([3]; 12.5 mg QD, Week 6): −6.28 mL/min/1.73 m^2 | Estimated Glomerular Filtration Rate, mean observed ([3]; 12.5 mg QD, Week 6): 73.39 mL/min/1.73 m^2 | Estimated Glomerular Filtration Rate, mean change from baseline ([3]; 12.5 mg QD, Week 7): −7.17 mL/min/1.73 m^2 | Estimated Glomerular Filtration Rate, mean observed ([3]; 12.5 mg QD, Week 7): 72.50 mL/min/1.73 m^2 | Estimated Glomerular Filtration Rate, mean change from baseline ([3]; 12.5 mg QD, Week 8): −3.67 mL/min/1.73 m^2 | Estimated Glomerular Filtration Rate, mean observed ([3]; 12.5 mg QD, Week 8): 76.00 mL/min/1.73 m^2 | Estimated Glomerular Filtration Rate, mean observed ([3]; 25 mg BID, BL): 80.85 mL/min/1.73 m^2 | Estimated Glomerular Filtration Rate, mean change from baseline ([3]; 25 mg BID, Week 1): −6.85 mL/min/1.73 m^2 | Estimated Glomerular Filtration Rate, mean observed ([3]; 25 mg BID, Week 1): 74.00 mL/min/1.73 m^2

— US20260053812A1, “METHODS OF TREATING HYPERTENSION WITH A COMBINATION OF AN ALDOSTERONE SYNTHASE INHIBITOR AND A DIURETIC” (Mineralys Therapeutics, Inc., priority 2022, published 2026)
